# Test results as given in patent publication US6472417B1, “Synergistic pesticidal composition of pyrethroid and N-phenyl-pyrazole” (priority 1994, dated 2002).
# Where two headings read alike, the source gives them in different places.
# System: Coptotermes formosanusus Shiraki
# Assay: Termite control soil treatment test (Japan Wood Preservation Association Standards No. 13, 1987): bored depth, damage by eating, termite control effect
# Type: in vivo
# Settings: for Bored depth (mm) 14 days later: treated soil layer 1 cm
# Text: In the description of these embodiments, the term “part(s)” means part(s) by weight. The test method of embodiments was in accordance with Japan Wood Preservation Association Standards No. 13, 1987, “Standards for Testing Methods of Termite Controlling Effects and Performance of Termite Controlling Agents for Soil Treatment (I)”.
# A testing apparatus was used in which two glass cylinders (each about 5 cm in diameter and about 12 cm in height) are connected at about 2 cm from the bottom with a glass tube about 1.5 cm in diameter and about 10 cm in length (graduated at 5-mm intervals for 5 cm at the center). The one glass cylinder was filled with about 60 g of non-treated soil adjusted to a moisture content of about 25%, and the other glass cylinder was filled with about 0.29 g of filter paper (5.5 mm in diameter). The glass tube was filled, at a thickness of 1 cm, with test soil prepared by mixing 2.4 g of non-treated sandy soil which had passed through a 20-mesh screen and had been dried at 60° C. until a constant weight had been achieved, with 0.45 g of the solution of the test composition of a predetermined concentration, and the mixture was allowed to stand for 3 weeks in a room without weather resistance treatment. The glass tube was connected to the glass cylinders.
# In the glass cylinder filled with non-treated soil, 200 workers and 20 soldiers of Coptotermes formosanusus Shiraki were placed, and the testing apparatus was kept at a constant temperature chamber controlled at a temperature of 28° C., and a relative humidity of 70% or higher.
# The bored depth (millimeters=mm), damage by eating, and the termite control effect were determined 14 days after insects were put in place, and the effect was evaluated in accordance with the following criteria: […]
# [1] = Concentration (%) 0.005, single ingredient
# [2] = Concentration (%) 0.01, single ingredient
# [3] = Coptotermes, soil, 336 h, read-out: Termite control effect 14 days later
# [4] = Concentration (%) 0.025, single ingredient
# [5] = Concentration (%) 0.05, single ingredient
# [6] = Concentration (%) 0.02, single ingredient
# [7] = Concentration (%) 0.1, single ingredient
# [8] = Concentration (%) 0.002, single ingredient
SMILES,Damage by eating 14 days later [1],Bored depth (mm) 14 days later [1] [mm],Damage by eating 14 days later [2],Bored depth (mm) 14 days later [2] [mm],pest or weed control at 0.005 % [3] [%],pest or weed control at 0.01 % [3] [%],Damage by eating 14 days later [5],Bored depth (mm) 14 days later [5] [mm],pest or weed control at 0.05 % [3] [%],Damage by eating 14 days later [6],Bored depth (mm) 14 days later [6] [mm],also measured
"Cc1c(COC(=O)[C@@H]2[C@H](/C=C(\Cl)C(F)(F)F)C2(C)C)cccc1-c1ccccc1 (racemic) [Bifenthrin, 2-methylbiphenyl-3-yl-methyl (Z)-1RS,3RS)-3-(2-chloro-3,3,3-trifluoroprop-1-enyl)-2-2-dimnethylcyclopropane carboxylate]",+++ (51% or more compared with non-treatment),>10,+++ (51% or more compared with non-treatment),>10,< 49,< 49,,,,,,
"CC1(C)[C@H](C(=O)O[C@@H](C#N)c2ccc(F)c(Oc3ccccc3)c2)[C@@H]1C=C(Cl)Cl (racemic) [Cyfluthrin, (RS)-a-cyano-4-fluoro-3-phenoxybenzyl (1RS, 3RS)-(1RS, 3RS)-3-(2,2-dichlorovinyl)-2,2-dimethylcyclopropane carboxylate]",+++ (51% or more compared with non-treatment),>10,,,,,,,,,,Termite control effect 14 days later [1]: D (49% lethal or less); Damage by eating 14 days later [4]: None; Termite control effect 14 days later [4]: D (49% lethal or less); Bored depth (mm) 14 days later [4]: >10 mm
"CC1(C)C(C=C(Cl)Cl)C1C(=O)OC(C#N)c1cccc(Oc2ccccc2)c1 (racemic) [Cypermethrin, (RS)-a-cyano-3-phenoxybenzyl (1RS,3RS)-(1RS,3SR)-3-(2,2-dichlorovinyl)-2,2-dimethylcyclopropane carboxylate]",+++ (51% or more compared with non-treatment),>10,,,< 49,,,,,,,Damage by eating 14 days later [4]: None; Bored depth (mm) 14 days later [4]: >10 mm; pest or weed control at 0.025 % [3]: < 49%
"CC(C)C(C(=O)OC(C#N)c1cccc(Oc2ccccc2)c1)c1ccc(Cl)cc1 (racemic) [Fenvalerate, (RS)-a-cyano-3-phenoxybenzyl (RS)-2-(4-chlorophenyl)-3-methylbutanoate]",,,+++ (51% or more compared with non-treatment),>10,,< 49,+ (10% or less compared with non-treatment),>10,100,,,
"CC1(C)C(C=C(Cl)Cl)C1C(=O)OCc1cccc(Oc2ccccc2)c1 (racemic) [Permethrin, 3-phenoxybenzyl (1RS,3RS)-(1RS,3RS)-(2,2-dichlorovinyl)-2,2-diimethylcyclopropane carboxylate]",,,,,,,,,,+++ (51% or more compared with non-treatment),>10,Damage by eating 14 days later [7]: None; Bored depth (mm) 14 days later [7]: >10 mm; pest or weed control at 0.02 % [3]: < 49%; pest or weed control at 0.1 % [3]: < 49%
"N#Cc1nn(-c2c(Cl)cc(C(F)(F)F)cc2Cl)c(N)c1[S+]([O-])C(F)(F)F (stereo not drawn) [Compound A, 5-amino-3-cyano-1-(2,6-dichloro-4-trifluoromethylphenyl)-4-trifluoromethylsulphinylpyrazole]",++ (11-50% or less compared with non-treatment),>10,+ (10% or less compared with non-treatment),>10,100,100,,,,+ (10% or less compared with non-treatment),>10,pest or weed control at 0.02 % [3]: 100%
"CCOc1ccc(C(C)(C)COCc2cccc(Oc3ccccc3)c2)cc1 [Ethofenprox, 2-(4-ethoxyphenyl)-2-methylpropyl-3-phenoxybenzyl ether]",,,,,,,,,,+++ (51% or more compared with non-treatment),>10,Termite control effect 14 days later [6]: D (49% lethal or less); Damage by eating 14 days later [7]: None; Termite control effect 14 days later [7]: D (49% lethal or less); Bored depth (mm) 14 days later [7]: >10 mm
CC(C)[C@H](Nc1ccc(C(F)(F)F)cc1Cl)C(=O)OC(C#N)c1cccc(Oc2ccccc2)c1 (stereo partly drawn) [Fluvalinate],,,,,,,+++ (51% or more compared with non-treatment),>10,< 49,,,
"CCOc1ccc([Si](C)(C)CCCc2ccc(F)c(Oc3ccccc3)c2)cc1 [Silafluofen, 4-ethoxyphenyl-[3-(3-phenoxy-4-fluorophenyl)propyl](dimnethyl)silane]",,,+++ (51% or more compared with non-treatment),>10,,< 49,+ (10% or less compared with non-treatment),>10,100,,,
"CC1(C)[C@H](C(=O)O[C@H](C#N)c2cccc(Oc3ccccc3)c2)[C@@H]1C(Br)C(Br)(Br)Br (stereo partly drawn) [Tralomethrin, (S)-a-cyano-3-phenoxybenzyl (1R,3S)-2,2-dinethyl-3-(1,2,2,2-tetrabromoethyl)cyclopropane carboxylate]",,,+++ (51% or more compared with non-treatment),>10,,,,,,,,"Damage by eating 14 days later [8]: +++ (51% or more compared with non-treatment); Bored depth (mm) 14 days later [8]: >10 mm; pest or weed control at 0.002 % (Coptotermes, soil, 336 h, Concentration (%) 0.002, single ingredient, read-out: Termite control effect 14 days later): < 49%; pest or weed control at 0.01 % (Coptotermes, soil, 336 h, Concentration (%) 0.01, single ingredient, read-out: Termite control effect 14 days later): < 49%"
